Results: patent US20240382557A1, “INHIBITION OF TUMOR NECROSIS FACTOR, PRO-INFLAMMATORY CYTOKINES AND OTHER INFLAMMATORY RESPONSE MEDIATORS” (Allegro Pharmaceuticals, LLC, priority 2021, published 2024)
Where a SMILES comes first, the peptide text is derived from it. [ ]: non-standard residue; d: D form. Cya = N[C@@H](CS(=O)(=O)O)C(=O)O

Experiments:
[1] = Intravenous infusion to dogs, toxicity; type: in vivo; conditions: 1.0 mg/kg, 5.0 mg/kg and 8.0 mg/kg
Description: The peptides disclosed herein may be administered at any effective dosages, as a single dose or multiple doses, and by any suitable routes of administration. For some systemic treatments, administration by injection or intravenous infusion may be preferable. […] Accordingly, in at least some applications, risuteganib may be administered, for example, by intravenous infusion at a dosage ranging from 1 mg/kg to 8 mg/kg. Other dosage levels and other routes of administration may also be suitable and effective.

[2] = tested on: Human umbilical vein endothelial cells (HUVEC); test: RNA-seq gene expression in HUVEC treated with hypoxia and cytokines; type: cell-based
From the text: Purpose: A chronic pro-inflammatory condition is associated with many ocular diseases, including DED, AMD, and DR. During this process, tissue resident and peripheral immune cells are activated and contribute to formation of a cytotoxic inflammatory state that causes tissue damage and vision loss. In this study, RNA-seq was used to unbiasedly identify the genes regulated by risuteganib treatment in human endothelial cells exposed to hypoxia and cytokines. Analysis of the specific subset of genes regulated by risuteganib enables identification of biological processes and pathways modulated by the oligopeptide.
Methods: Human umbilical vein endothelial cells (HUVEC) were used between passage 3 to 5. All cells were grown at 3% O2 to stimulate endothelial cells into a more angiogenic state. Cells were divided into four treatment groups: control, cytokines for 48 hours, 500 uM risuteganib for 24 hours, and cytokines for 48 hours with 500 uM risuteganib for 24 hours. Cytokine treatment contains both human TNF-a and IL-1b at 1 ng/ml at final concentration. After exposure, cells were collected and their total RNA isolated for RNA-seq. The generated reads were then aligned to human reference genome/transcriptome and gene expression quantified for differential expression analysis and fold change calculation. The list of regulated genes was then used to identify biological processes and pathways that are regulated after risuteganib exposure with cytokine exposure.

[3] = 3% O2, 500 uM risuteganib for 24 hours

## C[C@@H](O)[C@H](NC(=O)[C@H](CS(=O)(=O)O)NC(=O)CNC(=O)[C@H](CCCNC(=N)N)NC(=O)CN)C(=O)N1CCC[C@H]1C(=O)O [Risuteganib, Glycyl-L-arginylglycyl-3-sulfo-L-alanyl-L-threonyl-L-proline] (H-GRG[Cya]TP-OH)
[1]
  toxicity or side effects: without significant toxicity or side effects
[2]; [3]
  CCL2 Mean Expression Rate (Normalized as Fraction Control): 0.8696
  CCL20 Mean Expression Rate (Normalized as Fraction Control): 0.6328
  CFH Mean Expression Rate (Normalized as Fraction Control): 0.9706
  CXCL5 Mean Expression Rate (Normalized as Fraction Control): 1.166
  CXCL6 Mean Expression Rate (Normalized as Fraction Control): 0.9699
  IL6 Mean Expression Rate (Normalized as Fraction Control): 0.9982
  IL7R Mean Expression Rate (Normalized as Fraction Control): 1.036
  SELE Mean Expression Rate (Normalized as Fraction Control): 0.7022
  TNFAIP3 Mean Expression Rate (Normalized as Fraction Control): 0.946
  TNFAIP6 Mean Expression Rate (Normalized as Fraction Control): 0
  TNFRSF11B Mean Expression Rate (Normalized as Fraction Control): 0.8931
[2]; 342/403 genes
  genes regulated by both risuteganib and cytokines that are regulated in opposite directions: 85%
[2]; cytokine-activated condition
  reversing the transcriptome changes associated with cytokine treatment (Pearson's r): −0.267
[2]; incl. cytokine-cytokine receptor interaction, TNF signaling, IL-17 signaling
  number of pathways down-regulated by risuteganib (pathway analysis): 10
